According to patent publication US11215619B2 (priority 2019, dated 2022):

Experiments:
[1] = type: physicochemical; conditions: 6 μM oligonucleotide, 10% K+ buffer
thrombin = thrombin (Homo sapiens, UniProt P00734); conditions: isothermal titration calorimetry (Pagano et al. 2008); cited from earlier work
[2] = Solvatochromic studies of 4QI; type: physicochemical
Protocol: (§1) All fluorescence excitation and emission measurements were made at 25.00° C. using a PTI Alphascan-2 spectrofluorometer equipped with a 1×4 Multicell Block Peltier and temperature controller, with baseline correction and variable slit widths as specified. All fluorescence excitation spectra were recorded at the maximum emission wavelength of the fluorophore and emission spectra were recorded at the maximum excitation wavelength.
Solvatochromatic studies were completed using quartz cells (Hellma 101-QS) with a light path of 10 mm. A 100 μM stock solution of 4QI was prepared in reagent grade DMSO. Using the stock solution, 3 μM solutions of 4QI were prepared in a series of solvents: MQ water, methanol, acetonitrile, THF, chloroform and isopropyl alcohol. After mixing by inversion (×20), emission and excitation spectra for each sample were recorded as described using slit widths of 5 nm.

[3] = Photophysical characterization of 4QI (fluorescence spectrometry); type: physicochemical
Protocol: as §1
4QI-alcohol and 4QI-DMT contain the same fluorophore such that characterization of 4QI-alcohol is representative of the solvatochromic and photophysical capacity of the 4QI fluorophore. […] Excitation and emission in the visible region as opposed to the ultraviolet (UV) region is favorable because the dye can be excited using a visible lamp rather than a more expensive UV lamp.

[4] = Kinetic studies of 4QI under oligonucleotide deprotection conditions; type: physicochemical
Protocol: Recall that standard conditions for oligonucleotide deprotection involve heating to 55° C. for 4 h in ammonium hydroxide (Table 3). […] Therefore, all mTBA were deprotected under UltraMild conditions.

[5] = Photostability of 4QI within a DNA helix; type: physicochemical; conditions: 6-month period, aqueous buffer pH 7.4
Source text: The 4QI dye was attached to a glycerol backbone and converted into a phosphoramidite for site-specific incorporation into DNA using solid phase DNA synthesis.

OTABA [6] = assay: Fluorescent titration of dye binding to OTABA; conditions: for Kd: apparent, dye binding to OTABA; for λem / λex: dye bound to OTABA; for λex (value in parentheses): footnote not given, line below the bound value
Protocol: Dye interaction with OTABA and subsequent displacement by OTA was initially investigated using fluorescence spectroscopy (FIG. 17) in the previously optimized OTA binding buffer. (Fadock et al., 2017) Additions of OTABA (up to 1.5 equiv.) to the dye (6 μM) caused dose-dependent increases in ligand emission at 488 nm for ThT (240-fold increase at 1.5 equiv. OTABA, FIG. 17a), 605 nm for the 4QI (42-fold, FIG. 17b) and 640 nm for BtC (8-fold, FIG. 17c).

OTABA [7] = assay: Dye displacement from OTABA mediated by OTA (label-free aptasensor); type: binding; conditions: for Kd: apparent, OTA binding to OTABA from dye displacement, 0.5 μM OTABA; for % D (6 → 0.5 μM): OTA up to 1.5 equiv
Protocol: For dye displacement from the aptamer mediated by OTA, a 2:1 dye:OTABA mixture (12:6 μM) was treated with aliquots of OTA up to 1.5 equiv. (9 μM). Under these conditions, ThT was poorly displaced from the aptamer, displaying only a 6% drop in emission intensity (FIG. 17d). […] Significant differences in the ability of OTA to displace the dyes from the aptamer was not anticipated. Furthermore, given the relative binding affinities of the dyes for OTABA, ThT was expected to display the greatest ease of displacement. Clearly the ability of OTA to displace the dyes from the aptamer had little to do with the dye aptamer binding affinity.
To determine the analytical potential of the dye displacement assay, the 2:1 dye:OTABA starting mixture was optimized and the OTA titrations were repeated using 0.5 μM OTABA in the presence of 1 μM dye. […] Additions of OTA up to 1.5 equiv (0.75 μM) caused 93% BtC displacement, as evidenced by the loss of emission intensity for the aptamer-bound BtC at 640 nm, coupled with the loss of the ET band at 256 nm for BtC stacking with the G-tetrad of the folded aptamer.
From the OTA titrations involving hemicyanine dye displacement (4QI and BtC), a limit of detection (LoD)˜15 nM (6 ng/mL) and a limit of quantification (LoQ)˜45-47 nM (˜18 ng/mL) were determined (R^2=0.95-0.99). In contrast, an LoD of 73 nM (29 ng/mL) and LoQ of 222 nM (89 ng/mL, R^2=0.85) was determined from the ThT displacement data.

[8] = first value: 6 μM OTABA, 12 μM dye
[9] = second value: 0.5 μM OTABA, 1 μM dye

| Compound | Kd (OTABA [6]) [nM] | λem (OTABA [6]) [nm] | λex (OTABA [6]) [nm] | λex (value in parentheses) (OTABA [6]) | Kd (OTABA [7]; 1 μM dye) [nM] | % D (6 → 0.5 μM) (OTABA [7]; [8]) [%] | % D (6 → 0.5 μM) (OTABA [7]; [9]) [%] | other results |
| --- | --- | --- | --- | --- | --- | --- | --- | --- |
| TBA-15: Native thrombin binding aptamer 5′-GGTTGGTGTGGTTGG | – | – | – | – | – | – | – | Tm GQ [1]: 53.5 °C; Kd (thrombin): 330 nM |
| C[n+]1ccc(/C=C/c2cn(CCCO)c3ccccc23)c2ccccc21.[I-] [4QI, 4-(2-(1-(3-hydroxypropyl)-1H-indol-3-yl)vinyl)-1-methylquinolin-1-ium iodide] | 2500 | 605 | 532 | (493) nm | 356 | 28 | 47 | λex max ([2]; Acetonitrile): 494 nm; λex max ([2]; H2O): 486 nm; λex max ([2]; Isopropyl-alcohol): 523 nm; λex max ([2]; Methanol): 512 nm; λex max ([2]; THF): 514 nm; Stokes shift [3]: 104 nm; extinction coefficient [3]: 26,660 L/(mol·cm); stokes shift [3]: 90 nm; fluorescence emission ([3]; following excitation at 500 nm): 590 nm; λem maxima ([3]; free in H2O): 580 nm; λex maxima ([3]; free in H2O): 520 nm; time to complete bleaching of 4QI absorbance ([4]; Standard deprotection conditions): ≤ 6.5 h; time to complete bleaching of 4QI absorbance ([4]; UltraFast deprotection conditions): ≤ 0.05 h; decrease of fluorescence intensity ([4]; UltraMild conditions, 17-hour kinetic study): 11%; photostability [5]: photostable |
| CCN(CC)c1ccc2cc(/C=C/c3sc4ccccc4[n+]3C)c(=O)oc2c1 [BtC] | 3200 | 640 | 580 | (549) nm | 112 ± 8.9 | 52 | 93 | – |
| Cc1ccc2c(c1)sc(-c1ccc(N(C)C)cc1)[n+]2C [ThT, Thioflavin T] | 10900 | 488 | 448 | (412) nm | 292 | 6 | 23 | – |
